Results published in PMC4006130 (Pflugers Archiv, 2013).

Biological target: NHE1 (Rattus norvegicus, UniProt P26431)
Assay: BCECF intracellular pH recovery after ammonium prepulse
Format: cell-based

NHE1, sequence (P26431 whole entry): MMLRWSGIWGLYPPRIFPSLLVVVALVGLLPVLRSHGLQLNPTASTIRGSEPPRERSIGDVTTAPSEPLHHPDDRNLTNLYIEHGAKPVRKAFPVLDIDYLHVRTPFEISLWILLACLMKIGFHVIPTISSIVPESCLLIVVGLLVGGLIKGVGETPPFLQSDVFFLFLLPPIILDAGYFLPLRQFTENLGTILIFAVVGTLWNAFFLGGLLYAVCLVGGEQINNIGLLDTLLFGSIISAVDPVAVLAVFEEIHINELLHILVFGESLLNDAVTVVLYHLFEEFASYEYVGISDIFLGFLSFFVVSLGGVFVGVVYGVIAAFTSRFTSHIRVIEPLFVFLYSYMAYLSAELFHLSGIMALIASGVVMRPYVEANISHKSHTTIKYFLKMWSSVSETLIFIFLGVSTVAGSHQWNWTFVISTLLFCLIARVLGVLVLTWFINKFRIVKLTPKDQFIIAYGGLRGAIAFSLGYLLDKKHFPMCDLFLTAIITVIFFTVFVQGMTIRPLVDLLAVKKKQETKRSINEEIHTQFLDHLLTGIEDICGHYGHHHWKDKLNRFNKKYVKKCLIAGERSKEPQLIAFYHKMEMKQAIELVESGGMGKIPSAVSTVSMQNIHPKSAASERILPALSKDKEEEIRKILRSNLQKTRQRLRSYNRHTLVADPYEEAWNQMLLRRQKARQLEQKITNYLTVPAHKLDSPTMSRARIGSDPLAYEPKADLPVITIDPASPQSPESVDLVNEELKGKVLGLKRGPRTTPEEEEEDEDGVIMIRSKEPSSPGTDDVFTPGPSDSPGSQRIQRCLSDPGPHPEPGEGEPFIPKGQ

An IC50 of 1100 nM was found for `CC(C)c1ccc(C(=O)NC(=N)N)cc1S(C)(=O)=O` [cariporide] in this work.
